Columns and labels:
breast line MDA468 = assay: In vitro cell culture growth assay (MTS), MDA468; format: cell-based; conditions: Homo sapiens, 72 h, MDA468 cells, three days after drug treatment
In short: (§1)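 Viable cell density is assessed three days after inhibitor addition via MTS conversion, normalised to vehicle-treated cells.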

Human mTOR (FLAG-TOR) = molecular target: T1, Human mTOR (FLAG-TOR) (Homo sapiens, UniProt P42345); assay: Human mTOR kinase assay with purified enzyme, DELFIA format; format: biochemical; conditions: purified human mTOR enzyme, DELFIA format
T1 construct: FLAG
In short: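 Purified FLAG-mTOR in HEPES pH 7.4 buffer with 10 mM MnCl2 was preincubated with inhibitor and reacted 2 h at room temperature with His6-S6K substrate, then stopped with EDTA/EGTA. Phospho-T389 S6K detected by DELFIA with Eu-labelled antibody (40 ng/mL) after plate capture; inhibition computed from signal.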

prostate line LNCap = assay: In vitro cell culture growth assay (MTS), LNCap; format: cell-based; conditions: Homo sapiens, LNCaP, 72 h, LNCap cells, three days after drug treatment
In short: as §1

PI3K [1] = molecular target: T2, PI3K (Homo sapiens, UniProt P42336); assay: Fluorescence polarization assay for PI3K; format: biochemical; conditions: PI3 Kinase α isoform, fluorescence polarization; read-out: PI3 Kinase α IC50
T2 construct: PI3 Kinase α IC50; other: PI3 Kinase α; other: PI3 Kinase α isoform, fluorescence polarization
In short: (§2)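 PI3K was preincubated with compound (final DMSO 1%), and the reaction was started with PIP2/ATP substrate and run 30–60 min. It was stopped with a detector mix giving 10 nM red probe and 70 nM GST-GRP.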

PI3K [2] = molecular target: T3, PI3K (Homo sapiens, UniProt P48736); assay: Fluorescence polarization assay for PI3K; format: biochemical; conditions: PI3 Kinase γ isoform, fluorescence polarization; read-out: PI3 Kinase γ IC50
T3 construct: PI3 Kinase γ IC50; other: PI3 Kinase γ; other: PI3 Kinase γ isoform, fluorescence polarization
In short: as §2

T2 sequence (P42336 whole entry, canonical isoform): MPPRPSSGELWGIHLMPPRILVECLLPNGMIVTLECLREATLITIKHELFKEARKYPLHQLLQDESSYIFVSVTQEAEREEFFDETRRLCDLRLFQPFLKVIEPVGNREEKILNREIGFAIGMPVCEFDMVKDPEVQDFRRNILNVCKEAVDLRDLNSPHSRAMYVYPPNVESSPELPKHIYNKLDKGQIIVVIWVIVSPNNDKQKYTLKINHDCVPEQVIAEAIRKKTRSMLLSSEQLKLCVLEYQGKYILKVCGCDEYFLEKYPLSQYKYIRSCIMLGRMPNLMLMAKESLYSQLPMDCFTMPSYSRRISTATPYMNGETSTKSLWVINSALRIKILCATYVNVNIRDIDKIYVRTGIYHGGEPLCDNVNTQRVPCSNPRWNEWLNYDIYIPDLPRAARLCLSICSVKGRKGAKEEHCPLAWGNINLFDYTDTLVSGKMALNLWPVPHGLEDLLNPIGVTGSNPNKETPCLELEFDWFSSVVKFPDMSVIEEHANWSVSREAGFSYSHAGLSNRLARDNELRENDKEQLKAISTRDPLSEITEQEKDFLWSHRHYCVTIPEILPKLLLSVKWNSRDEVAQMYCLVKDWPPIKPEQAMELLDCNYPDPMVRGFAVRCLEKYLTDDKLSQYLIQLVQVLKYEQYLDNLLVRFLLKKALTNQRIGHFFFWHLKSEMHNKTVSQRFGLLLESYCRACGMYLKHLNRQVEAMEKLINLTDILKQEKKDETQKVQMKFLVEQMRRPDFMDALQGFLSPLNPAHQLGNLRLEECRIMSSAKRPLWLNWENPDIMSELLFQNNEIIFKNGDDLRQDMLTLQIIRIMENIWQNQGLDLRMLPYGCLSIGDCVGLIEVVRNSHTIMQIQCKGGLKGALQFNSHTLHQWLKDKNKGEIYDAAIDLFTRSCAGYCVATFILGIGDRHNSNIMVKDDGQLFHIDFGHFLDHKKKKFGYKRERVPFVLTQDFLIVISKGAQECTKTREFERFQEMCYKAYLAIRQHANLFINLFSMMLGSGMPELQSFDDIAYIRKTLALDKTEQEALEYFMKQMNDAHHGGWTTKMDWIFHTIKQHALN
T3 sequence (P48736 whole entry, canonical isoform): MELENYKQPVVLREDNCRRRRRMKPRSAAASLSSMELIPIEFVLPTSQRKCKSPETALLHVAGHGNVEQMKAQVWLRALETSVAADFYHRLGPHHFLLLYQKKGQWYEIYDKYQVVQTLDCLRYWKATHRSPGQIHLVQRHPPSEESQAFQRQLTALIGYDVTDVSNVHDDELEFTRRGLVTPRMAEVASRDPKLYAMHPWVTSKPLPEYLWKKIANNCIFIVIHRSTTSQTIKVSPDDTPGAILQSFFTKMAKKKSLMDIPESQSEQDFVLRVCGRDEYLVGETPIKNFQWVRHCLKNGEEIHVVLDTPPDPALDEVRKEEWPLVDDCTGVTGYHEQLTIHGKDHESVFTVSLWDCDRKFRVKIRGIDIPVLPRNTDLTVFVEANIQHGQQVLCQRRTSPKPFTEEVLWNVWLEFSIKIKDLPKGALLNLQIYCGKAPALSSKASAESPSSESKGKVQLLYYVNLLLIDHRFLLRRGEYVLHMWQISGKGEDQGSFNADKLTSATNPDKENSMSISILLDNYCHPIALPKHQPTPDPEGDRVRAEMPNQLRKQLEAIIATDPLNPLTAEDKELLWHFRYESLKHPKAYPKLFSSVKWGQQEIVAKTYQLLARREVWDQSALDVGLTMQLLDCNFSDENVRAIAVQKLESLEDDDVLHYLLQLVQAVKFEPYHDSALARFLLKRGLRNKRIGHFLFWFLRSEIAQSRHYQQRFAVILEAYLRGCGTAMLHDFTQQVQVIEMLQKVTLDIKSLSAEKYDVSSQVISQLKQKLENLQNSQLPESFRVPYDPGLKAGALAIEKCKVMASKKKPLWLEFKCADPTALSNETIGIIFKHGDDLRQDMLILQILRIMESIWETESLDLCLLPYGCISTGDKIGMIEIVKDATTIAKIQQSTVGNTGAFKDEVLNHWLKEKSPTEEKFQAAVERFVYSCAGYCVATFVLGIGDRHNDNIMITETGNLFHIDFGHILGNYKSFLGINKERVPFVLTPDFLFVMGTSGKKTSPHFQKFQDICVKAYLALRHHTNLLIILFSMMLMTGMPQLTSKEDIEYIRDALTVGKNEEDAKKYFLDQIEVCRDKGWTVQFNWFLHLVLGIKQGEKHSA

Row | SMILES | IC50 (Human mTOR (FLAG-TOR)) | IC50 (prostate line LNCap) | IC50 (PI3K [1]) | IC50 (PI3K [2]) | IC50 (breast line MDA468)
1 | COCC(COC)n1ncc2c(N3CC4CCC(C3)O4)nc(-c3ccc(NC(=O)Nc4ccc(N5CCNCC5)cc4)cc3)nc21 [Example 335, 1-(4-{1-[2-methoxy-1-(methoxymethyl)ethyl]-4-(8-oxa-3-azabicyclo[3.2.1]oct-3-yl)-1H-pyrazolo[3,4-d]pyrimidin-6-yl}phenyl)-3-(4-piperazin-1-ylphenyl)urea] | 2.35 nM | 28 nM | 273 nM | 4480 nM | 210 nM
2 | COCC(COC)n1ncc2c(N3CC4CCC(C3)O4)nc(-c3ccc(NC(=O)Nc4ccc(C(=O)NN(C)C)cc4)cc3)nc21 [Example 336, 1-{4-[(2,2-dimethylhydrazino)carbonyl]phenyl}-3-(4-{1-[2-methoxy-1-(methoxymethyl)ethyl]-4-(8-oxa-3-azabicyclo[3.2.1]oct-3-yl)-1H-pyrazolo[3,4-d]pyrimidin-6-yl}phenyl)urea] | 2.75 nM | < 1 nM | 666 nM | > 10000 nM | 4 nM
3 | O=C(Nc1ccncc1)Nc1ccc(-c2nc(N3CC4CNCC(C3)O4)c3cnn(CC(F)(F)F)c3n2)cc1 [Example 337, 1-{4-[4-(9-oxa-3,7-diazabicyclo[3.3.1]non-3-yl)-1-(2,2,2-trifluoroethyl)-1H-pyrazolo[3,4-d]pyrimidin-6-yl]phenyl}-3-pyridin-4-ylurea] | 31.5 nM | 2200 nM | 1790 nM | 7930 nM | 1900 nM
4 | O=CN1CC2CN(c3nc(-c4ccc(NC(=O)Nc5ccncc5)cc4)nc4c3cnn4CC(F)(F)F)CC(C1)O2 [Example 338, 1-{4-[4-(7-formyl-9-oxa-3,7-diazabicyclo[3.3.1]non-3-yl)-1-(2,2,2-trifluoroethyl)-1H-pyrazolo[3,4-d]pyrimidin-6-yl]phenyl}-3-pyridin-4-ylurea] | 787 nM | 2950 nM | 9500 nM | > 10000 nM | 1870 nM
5 | CC(=O)N1CC2CN(c3nc(-c4ccc(NC(=O)Nc5ccncc5)cc4)nc4c3cnn4CC(F)(F)F)CC(C1)O2 [Example 339, 1-{4-[4-(7-acetyl-9-oxa-3,7-diazabicyclo[3.3.1]non-3-yl)-1-(2,2,2-trifluoroethyl)-1H-pyrazolo[3,4-d]pyrimidin-6-yl]phenyl}-3-pyridin-4-ylurea] | > 6330 nM | > 60000 nM | 9420 nM | > 10000 nM | > 60000 nM
6 | CC(C)(C)OC(=O)N1CC2CN(c3nc(-c4ccc(NC(=O)Nc5ccncc5)cc4)nc4c3cnn4CC(F)(F)F)CC(C1)O2 [Example 340, tert-butyl 7-[6-{4-[(pyridin-4-ylcarbamoyl)amino]phenyl}-1-(2,2,2-trifluoroethyl)-1H-pyrazolo[3,4-d]pyrimidin-4-yl]-9-oxa-3,7-diazabicyclo[3.3.1]nonane-3-carboxylate] | 305 nM | 5200 nM | 5080 nM | 5760 nM | 5200 nM
7 | CNC(=O)Nc1ccc(-c2nc(N3C[C@H]4C[C@@H]3CO4)c3cnn(CC(F)(F)F)c3n2)cc1 [Example 341, 1-methyl-3-(4-{4-[(1R,4R)-2-oxa-5-azabicyclo[2.2.1]hept-5-yl]-1-(2,2,2-trifluoroethyl)-1H-pyrazolo[3,4-d]pyrimidin-6-yl}phenyl)urea] | 91 nM | 2500 nM | 4630 nM | > 10000 nM | 5000 nM
8 | O=C(Nc1ccc(-c2nc(N3C[C@H]4C[C@@H]3CO4)c3cnn(CC(F)(F)F)c3n2)cc1)NC1CC1 [Example 342, 1-cyclopropyl-3-(4-{4-[(1R,4R)-2-oxa-5-azabicyclo[2.2.1]hept-5-yl]-1-(2,2,2-trifluoroethyl)-1H-pyrazolo[3,4-d]pyrimidin-6-yl}phenyl)urea] | 53 nM | 670 nM | 9500 nM | > 10000 nM | 1000 nM

Now from value to compound, other results behind:

Row | IC50 (Human mTOR (FLAG-TOR)) | IC50 (prostate line LNCap) | IC50 (PI3K [1]) | IC50 (PI3K [2]) | SMILES | IC50 (breast line MDA468)
9 | 81 nM | 1200 nM | 5170 nM | > 10000 nM | O=C(Nc1ccc(-c2nc(N3C[C@H]4C[C@@H]3CO4)c3cnn(CC(F)(F)F)c3n2)cc1)OCCO [Example 343, 2-hydroxyethyl (4-{4-[(1R,4R)-2-oxa-5-azabicyclo[2.2.1]hept-5-yl]-1-(2,2,2-trifluoroethyl)-1H-pyrazolo[3,4-d]pyrimidin-6-yl}phenyl)carbamate] | 1500 nM
10 | 17 nM | 660 nM | 1940 nM | > 10000 nM | O=C(Nc1ccc(-c2nc(N3C[C@H]4C[C@@H]3CO4)c3cnn(CC(F)(F)F)c3n2)cc1)Nc1cccnc1 [Example 344, 1-(4-{4-[(1R,4R)-2-oxa-5-azabicyclo[2.2.1]hept-5-yl]-1-(2,2,2-trifluoroethyl)-1H-pyrazolo[3,4-d]pyrimidin-6-yl}phenyl)-3-pyridin-3-ylurea] | 1000 nM
11 | 38.5 nM | 190 nM | 1920 nM | > 10000 nM | CN1CCN(c2ccc(NC(=O)Nc3ccc(-c4nc(N5C[C@H]6C[C@@H]5CO6)c5cnn(CC(F)(F)F)c5n4)cc3)cc2)CC1 [Example 345, 1-[4-(4-methylpiperazin-1-yl)phenyl]-3-(4-{4-[(1R,4R)-2-oxa-5-azabicyclo[2.2.1]hept-5-yl]-1-(2,2,2-trifluoroethyl)-1H-pyrazolo[3,4-d]pyrimidin-6-yl}phenyl)urea] | 450 nM
12 | 10.9 nM | 290 nM | 448 nM | 372 nM | CCn1nc(N2CCCC2)c2c(N3CC4CCC(C3)O4)nc(-c3ccc(NC(=O)Nc4cccnc4)cc3)nc21 [Example 346, 1-{4-[1-ethyl-4-(8-oxa-3-azabicyclo[3.2.1]oct-3-yl)-3-pyrrolidin-1-yl-1H-pyrazolo[3,4-d]pyrimidin-6-yl]phenyl}-3-pyridin-3-ylurea] | 950 nM
13 | 5.6 nM | 310 nM | 1100 nM | 7130 nM | CCn1nc(N2CCCC2)c2c(N3CC4CCC(C3)O4)nc(-c3ccc(NC(=O)NC)cc3)nc21 [Example 347, 1-{4-[1-ethyl-4-(8-oxa-3-azabicyclo[3.2.1]oct-3-yl)-3-pyrrolidin-1-yl-1H-pyrazolo[3,4-d]pyrimidin-6-yl]phenyl}-3-methylurea] | 1300 nM
14 | 7.5 nM | 280 nM | 1010 nM | 8590 nM | CCn1nc(N2CCN(C)CC2)c2c(N3CC4CCC(C3)O4)nc(-c3ccc(NC(=O)NC)cc3)nc21 [Example 348, 1-{4-[1-ethyl-3-(4-methylpiperazin-1-yl)-4-(8-oxa-3-azabicyclo[3.2.1]oct-3-yl)-1H-pyrazolo[3,4-d]pyrimidin-6-yl]phenyl}-3-methylurea] | 1000 nM
15 | 8.9 nM | 210 nM | 596 nM | 4960 nM | CCn1nc(-c2cccnc2)c2c(N3CC4CCC(C3)O4)nc(-c3ccc(NC(=O)NC)cc3)nc21 [Example 349, 1-{4-[1-ethyl-4-(8-oxa-3-azabicyclo[3.2.1]oct-3-yl)-3-pyridin-3-yl-1H-pyrazolo[3,4-d]pyrimidin-6-yl]phenyl}-3-methylurea] | 800 nM
16 | 1.95 nM | 130 nM | 565 nM | 6580 nM | C=Cc1nn(CC)c2nc(-c3ccc(NC(=O)NC)cc3)nc(N3CC4CCC(C3)O4)c12 [Example 350, 1-{4-[1-ethyl-4-(8-oxa-3-azabicyclo[3.2.1]oct-3-yl)-3-vinyl-1H-pyrazolo[3,4-d]pyrimidin-6-yl]phenyl}-3-methylurea] | 480 nM

From US8129371B2, “Thienopyrimidine and pyrazolopyrimidine compounds and their use as mTOR kinase and PI3 kinase inhibitors” (Wyeth LLC, priority 2007, dated 2012)
